20 compounds from PubChem BioAssay (NCI) can be followed below.

Values joined by “and” are separate entries in the source; they are usually repeats but may differ in a detail not shown here. Equal entries are not always repeated.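 Grown in 96-well plates, cells were treated for 48 hours with each compound at five concentrations. Insufficient inhibition: endpoint recorded as highest concentration tested. GI50: concentration for 50% inhibition of growth. At the TGI there is no net growth.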

Some test systems named below: LOX IMVI melanoma; MDA-MB-231 breast; A498 renal; MOLT-4 leukemia; CCRF-CEM leukemia; SW-620 colon; NCI-H23 lung; DU-145 prostate; SK-OV-3 ovarian; 786-0 renal; PC-3 prostate.
Holding throughout (assay): growth of human tumour cells (NCI), 48 h

As to `N#Cc1nc(C2CCC2)oc1N`, the TGI in the assay on LOX IMVI melanoma is greater than 100 µM; with MDA-MB-231 breast, greater than 100 µM; in the assay with A498 renal, greater than 100 µM; with MOLT-4 leukemia, greater than 100 µM; with CCRF-CEM leukemia it was 54.7 µM; in the assay with SW-620 colon, greater than 100 µM. The TGI with NCI-H23 lung, with DU-145 prostate, in the assay with SK-OV-3 ovarian, with 786-0 renal and in the assay on PC-3 prostate was greater than 100 µM each time.
On to `O=C1c2ccccc2NC(=S)[C@@H]2CCCN12`, for which the TGI with LOX IMVI melanoma, in the assay on MDA-MB-231 breast, in the assay with A498 renal, in the assay with MOLT-4 leukemia, with CCRF-CEM leukemia and in the assay on SW-620 colon was greater than 100 µM throughout. Also, the TGI in the assay with NCI-H23 lung, with DU-145 prostate, in the assay on SK-OV-3 ovarian, with 786-0 renal and in the assay with PC-3 prostate was greater than 100 µM each time.
Turning to `N#Cc1nc(NC(=O)c2ccccc2C(=O)O)c(C#N)[nH]1`, the TGI with LOX IMVI melanoma, in the assay with MDA-MB-231 breast, in the assay with A498 renal, in the assay on MOLT-4 leukemia, in the assay on CCRF-CEM leukemia and in the assay with SW-620 colon was greater than 100 µM in each case. Further, the TGI with NCI-H23 lung, in the assay with DU-145 prostate, in the assay on SK-OV-3 ovarian, with 786-0 renal and with PC-3 prostate was greater than 100 µM throughout.
As for `COc1c(O)c2c(=O)cc(OC)c3c4c(OC)cc(=O)c5c(O)c(OC)c6c(c(c1C(C(C)O)C6C(C)O)c23)c54` (stereo unspecified), the TGI in the assay on LOX IMVI melanoma was 3.08 µM; in the assay with MDA-MB-231 breast, 5.48 µM; with A498 renal, 3.45 µM; in the assay with MOLT-4 leukemia, 1.25 µM; in the assay on CCRF-CEM leukemia, 3.23 µM; with SW-620 colon, 4.33 µM. The TGI with NCI-H23 lung was 3.71 µM; with DU-145 prostate it was 8.14 µM; in the assay with SK-OV-3 ovarian, 8.64 µM; with 786-0 renal it was 4.78 µM; in the assay with PC-3 prostate, 1.85 µM.
As to `CO[C@@H]1O[C@H](C(=O)c2ccccc2)[C@H]2OC(C)(C)O[C@@H]12`, the TGI in the assay with LOX IMVI melanoma, in the assay on MDA-MB-231 breast, in the assay with A498 renal, with MOLT-4 leukemia, in the assay on CCRF-CEM leukemia and in the assay with SW-620 colon was greater than 100 µM in each case. Moreover, the TGI in the assay on NCI-H23 lung, in the assay on DU-145 prostate, with SK-OV-3 ovarian, in the assay on 786-0 renal and with PC-3 prostate was greater than 100 µM in each case.
Regarding `CCOC(=O)C#Cc1ccccc1`, the TGI was found to be 14.9 µM in the assay with LOX IMVI melanoma; 95.1 µM in the assay on MDA-MB-231 breast; 75.3 µM in the assay on A498 renal; 12.8 µM in the assay with MOLT-4 leukemia; 12.4 µM in the assay on CCRF-CEM leukemia; 31.2 µM in the assay on SW-620 colon. The TGI in the assay with NCI-H23 lung is 34.7 µM; in the assay with DU-145 prostate, greater than 100 µM; in the assay on SK-OV-3 ovarian, 89.6 µM; in the assay with 786-0 renal, 21.5 µM; with PC-3 prostate it was 31.3 µM.
Turning to `COc1ccc(CC2COc3cc(O)cc(O)c3C2=O)cc1O` (stereo unspecified), the TGI in the assay with LOX IMVI melanoma, with MDA-MB-231 breast, in the assay with A498 renal, with MOLT-4 leukemia, with CCRF-CEM leukemia and in the assay with SW-620 colon was greater than 100 µM each time. For the same compound, the TGI was greater than 100 µM with NCI-H23 lung; 68.1 µM in the assay on DU-145 prostate; 38.6 µM with SK-OV-3 ovarian; 92.3 µM in the assay with 786-0 renal; greater than 100 µM with PC-3 prostate.
Regarding `OCc1ccc2c(c1)CC1(Cc3ccc(/C=N/O)cc3C1)C2` (stereo unspecified), the TGI with LOX IMVI melanoma is greater than 100 µM; with MDA-MB-231 breast it was greater than 100 µM; with A498 renal it was 96.5 µM; in the assay on MOLT-4 leukemia, greater than 40.4 µM; in the assay with CCRF-CEM leukemia it was greater than 100 µM; in the assay with SW-620 colon it was greater than 100 µM. In addition, the TGI in the assay with NCI-H23 lung is 56.3 µM; with DU-145 prostate, greater than 100 µM; with SK-OV-3 ovarian, greater than 100 µM; in the assay with 786-0 renal, greater than 100 µM; with PC-3 prostate, greater than 100 µM.
For the compound `CCOC(=O)/C=C(\C(=O)OCC)n1ccc(=O)n(Cc2cn(COCCOC(C)=O)nn2)c1=O`, the TGI in the assay with LOX IMVI melanoma is 34.9 µM; in the assay on MDA-MB-231 breast, 41.1 µM; with A498 renal it was greater than 69.5 µM; in the assay with MOLT-4 leukemia it was 39.3 µM; in the assay on CCRF-CEM leukemia it was 11.9 µM; in the assay on SW-620 colon, 31.4 µM. For the same compound, the TGI in the assay on NCI-H23 lung is 32.6 µM; with DU-145 prostate it was greater than 100 µM; in the assay with SK-OV-3 ovarian it was greater than 100 µM; in the assay on 786-0 renal, 32.9 µM; in the assay on PC-3 prostate, 41.5 µM.
`O=c1cc(-c2ccccc2)oc2c(-c3cc(Cl)cc4c(=O)cc(-c5ccccc5)oc34)cc(Cl)cc12`: the TGI in the assay on LOX IMVI melanoma is greater than 100 µM; with MDA-MB-231 breast, greater than 100 µM; with A498 renal it was 56.7 µM; in the assay on MOLT-4 leukemia, 52.1 µM; in the assay on CCRF-CEM leukemia, 54.6 µM; in the assay on SW-620 colon it was greater than 100 µM. For the same compound, the TGI is greater than 100 µM in the assay on NCI-H23 lung; greater than 100 µM in the assay with DU-145 prostate; 85.2 µM in the assay on SK-OV-3 ovarian; greater than 100 µM with 786-0 renal; greater than 100 µM in the assay on PC-3 prostate.
For the compound `O=C1NCN(c2ccccc2)C12CCN(CCCN1CCN(CCOC(c3ccc(F)cc3)c3ccc(F)cc3)CC1)CC2`, the TGI in the assay with LOX IMVI melanoma is 3.39 µM; in the assay on MDA-MB-231 breast, 4.43 µM; in the assay with A498 renal it was 3.35 µM; in the assay with MOLT-4 leukemia, 15.1 µM; with CCRF-CEM leukemia, greater than 100 µM; in the assay with SW-620 colon it was 7.87 µM. The TGI in the assay with NCI-H23 lung was 9.69 µM; with DU-145 prostate it was 3.34 µM; in the assay with SK-OV-3 ovarian, 4.61 µM; in the assay on 786-0 renal, 3.2 µM; in the assay on PC-3 prostate, 10.9 µM.
`N#Cc1c(-c2ccccc2)cc(-c2ccc(Cl)cc2)[nH]c1=S`: the TGI in the assay on LOX IMVI melanoma was greater than 100 µM; in the assay on MDA-MB-231 breast, 67.3 µM; in the assay on A498 renal, 63.5 µM; with MOLT-4 leukemia it was greater than 100 µM; in the assay with CCRF-CEM leukemia, 86 µM; in the assay on SW-620 colon, greater than 100 µM. For the same compound, the TGI with NCI-H23 lung is 38.2 µM; in the assay on DU-145 prostate, greater than 100 µM; in the assay on SK-OV-3 ovarian, 77.6 µM; in the assay with 786-0 renal, greater than 100 µM; in the assay on PC-3 prostate, greater than 100 µM.
On to `Cn1c2ccccc2c(=O)c2c(O)cc3c(c21)C=CC1(CCCCC1)O3`, for which the TGI in the assay on LOX IMVI melanoma, with MDA-MB-231 breast, with A498 renal, in the assay with MOLT-4 leukemia, with CCRF-CEM leukemia and with SW-620 colon was greater than 10 µM each time. Moreover, the TGI in the assay on NCI-H23 lung, with DU-145 prostate, with SK-OV-3 ovarian, in the assay with 786-0 renal and in the assay with PC-3 prostate was greater than 10 µM in each case.
Take `COc1cc2ccc1OCc1cccc(n1)COc1ccc(cc1OC)C=Nc1ccc(cc1)N=C2`: the TGI with LOX IMVI melanoma, in the assay with MDA-MB-231 breast, with A498 renal, in the assay on MOLT-4 leukemia, with CCRF-CEM leukemia and with SW-620 colon was greater than 100 µM each time. Further, the TGI with NCI-H23 lung, in the assay with DU-145 prostate, in the assay with SK-OV-3 ovarian, in the assay on 786-0 renal and in the assay with PC-3 prostate was greater than 100 µM throughout.
Consider `O=C1CSC2=NC3=C(COC/C3=C\c3ccc(Br)cc3)C(c3ccc(Br)cc3)N12` (stereo unspecified), for which the TGI was greater than 100 µM with LOX IMVI melanoma; greater than 100 µM in the assay on MDA-MB-231 breast; greater than 100 µM in the assay with A498 renal; 64.2 µM in the assay on MOLT-4 leukemia; 61.9 µM in the assay with CCRF-CEM leukemia; greater than 100 µM in the assay with SW-620 colon. Moreover, the TGI in the assay on NCI-H23 lung, with DU-145 prostate, with SK-OV-3 ovarian, in the assay with 786-0 renal and in the assay on PC-3 prostate was greater than 100 µM throughout.
Take `COc1ccc(-c2cc(-c3ccccc3)[nH]c(=S)c2C#N)cc1`: the TGI in the assay on LOX IMVI melanoma is greater than 100 µM; in the assay on MDA-MB-231 breast it was greater than 100 µM; with A498 renal it was 60.2 µM; in the assay on MOLT-4 leukemia, greater than 100 µM; in the assay with CCRF-CEM leukemia, greater than 100 µM; with SW-620 colon it was greater than 100 µM. Also, the TGI in the assay with NCI-H23 lung was 52.3 µM; with DU-145 prostate, greater than 100 µM; in the assay with SK-OV-3 ovarian it was 93.6 µM; in the assay with 786-0 renal it was 86.3 µM; with PC-3 prostate, greater than 100 µM.
`C=C(CN(C)C)C(=O)c1ccccc1[N+](=O)[O-]`: the GI50 in the assay on LOX IMVI melanoma is 3.98 µM; with MDA-MB-231 breast, 12.6 µM; with MOLT-4 leukemia it was 4.01 µM and 0.606 µM; in the assay on CCRF-CEM leukemia, 2.7 µM and 2.18 µM; in the assay on NCI-H23 lung, 20.7 µM; with DU-145 prostate, 15 µM. The TGI is 15 µM and 15.5 µM in the assay on LOX IMVI melanoma; 38 µM and 34.1 µM in the assay on MDA-MB-231 breast; greater than 92 µM with A498 renal; 26.7 µM and 5.83 µM in the assay with MOLT-4 leukemia; 8.06 µM with CCRF-CEM leukemia; 31.3 µM in the assay on SW-620 colon. For the same compound, the TGI in the assay on NCI-H23 lung is 32.7 µM and 66.1 µM; in the assay on DU-145 prostate, 52.3 µM and 28.2 µM; with SK-OV-3 ovarian, greater than 86.8 µM; in the assay on 786-0 renal, 27 µM; in the assay with PC-3 prostate it was 31.3 µM and 13.5 µM.
Take `C#CCN(Cc1ccc2nc(OC)c(OC)nc2c1)c1cc(OC)c(OC)c(OC)c1`: the TGI was greater than 48.9 µM with LOX IMVI melanoma; 43.5 µM with MDA-MB-231 breast; greater than 84.5 µM in the assay with A498 renal; 72.6 µM with MOLT-4 leukemia; greater than 100 µM in the assay on CCRF-CEM leukemia; greater than 100 µM in the assay on SW-620 colon. Moreover, the TGI with NCI-H23 lung was 46.2 µM; in the assay with DU-145 prostate it was greater than 74.5 µM; with SK-OV-3 ovarian it was greater than 100 µM; in the assay with 786-0 renal it was 78.7 µM; with PC-3 prostate, greater than 91.5 µM.
For the compound `O=C(Nc1noc(-c2ccccc2)n1)c1ccccc1CNc1noc(-c2ccccc2)n1`, the TGI with LOX IMVI melanoma, in the assay on MDA-MB-231 breast, in the assay on A498 renal, with MOLT-4 leukemia, with CCRF-CEM leukemia and in the assay with SW-620 colon was greater than 100 µM each time. Further, the TGI in the assay with NCI-H23 lung, in the assay on DU-145 prostate, in the assay on SK-OV-3 ovarian, in the assay with 786-0 renal and with PC-3 prostate was greater than 100 µM throughout.
`CC(=O)c1cnc2oc3ccc(O)cc3c2c1-c1ccccc1`: the TGI was greater than 100 µM with LOX IMVI melanoma; greater than 100 µM in the assay with MDA-MB-231 breast; 88.6 µM in the assay with A498 renal; greater than 100 µM in the assay on MOLT-4 leukemia; greater than 100 µM in the assay with CCRF-CEM leukemia; greater than 100 µM in the assay with SW-620 colon. For the same compound, the TGI in the assay on NCI-H23 lung was greater than 100 µM; with DU-145 prostate, greater than 100 µM; with SK-OV-3 ovarian, 45.4 µM; in the assay on 786-0 renal, greater than 100 µM; with PC-3 prostate it was greater than 100 µM.
